These are literature values, as cited in US20050112339A1, “Antimicrobial protection for plastic structures” (priority 2003, published 2005).

For the data set the following is noted: in water.
Regarding `On1ccccc1=S.On1ccccc1=S.[Cu]` [copper pyrithione], the water solubility was 0.1 milligrams per liter.

Consider `[Na+].[O-][n+]1ccccc1[S-]` [sodium pyrithione], for which the water solubility is recorded as 450 grams per liter.

For zinc pyrithione, the water solubility is recorded as 6 milligrams per liter.
